The source of these data is patent US20080051418A1, “Arylalkanoic Acid Derivative” (priority 2004, published 2008).

For orientation: melting point means the temperature of the solid-liquid transition. Take `CCCn1nc(OCc2ccc3ccccc3n2)cc1COc1c(CC)cccc1CC(=O)O` [Example 5, (3-ethyl-2-{[1-propyl-3-(quinolin-2-ylmethoxy)-1H-pyrazol-5-yl]methoxy}phenyl)acetic acid]: the melting point lay in the range of 118 to 119 °C.
With `CCCOc1cc(COc2c(CC)cccc2CC(=O)O)n(Cc2ccc3ccccc3n2)n1` [Example 7, (3-ethyl-2-{[3-propoxy-1-(quinolin-2-ylmethyl)-1H-pyrazol-5-yl]methoxy}phenyl)acetic acid] the figure was 110 to 111 °C; with `COc1cccc(CC(=O)O)c1OCc1cc(OC(C)C)nn1Cc1ccc2ccccc2n1` [Example 8, (2-{[3-isopropoxy-1-(quinolin-2-ylmethyl)-1H-pyrazol-5-yl]methoxy}-3-methoxyphenyl)acetic acid], 129 to 130 °C.
`COc1cccc(CC(=O)O)c1OCc1cc(OCc2ccc3ccccc3n2)n(C(C)C)n1` [Example 9, (2-{[1-isopropyl-5-(quinolin-2-ylmethoxy)-1H-pyrazol-3-yl]methoxy}-3-methoxyphenyl)acetic acid] registered a melting point of 84 to 85 °C.
Take `COc1cccc(CC(=O)O)c1OCCCc1cc(OC(C)C)nn1Cc1ccc2ccccc2n1` [Example 10, (2-{3-[3-isopropoxy-1-(quinolin-2-ylmethyl)-1H-pyrazol-5-yl]propoxy}-3-methoxyphenyl)acetic acid]: the melting point was in the range of 129 to 130 °C.
As for `CCCOc1cc(CCCOc2c(CC(=O)O)cccc2OC)n(Cc2ccc3ccccc3n2)n1` [Example 11, (3-methoxy-2-{3-[3-propoxy-1-(quinolin-2-ylmethyl)-1H-pyrazol-5-yl]propoxy}phenyl)acetic acid], the melting point fell in the range of 97 to 98 °C.
For `CCOc1cccc(CC(=O)O)c1OCCCc1cc(OC(C)C)nn1Cc1ccc(Cl)cc1Cl` [Example 23, (2-{3-[1-(2,4-dichlorobenzyl)-3-isopropoxy-1H-pyrazol-5-yl]propoxy}-3-ethoxyphenyl)acetic acid], the melting point lay in the range of 132 to 133 °C.
Consider `Cc1cccc(CC(=O)O)c1OCCCc1cc(OC(C)C)nn1Cc1ccc(Cl)cc1Cl` [Example 24, (2-{3-[1-(2,4-dichlorobenzyl) -3-isopropoxy-1H-pyrazol-5-yl]propoxy}-3-methylphenyl)acetic acid], for which the melting point was 70 to 71 °C.
`CCOc1cc(CCCOc2c(CC(=O)O)cccc2OC)n(Cc2ccc(Cl)cc2Cl)n1` [Example 26, (2-{3-[1-(2,4-dichlorobenzyl)-3-ethoxy-1H-pyrazol-5-yl]propoxy}-3-methoxyphenyl)acetic acid] showed a melting point of 109 to 110 °C.
The compound `COc1cc(CCCOc2c(CC(=O)O)cccc2OC)n(Cc2ccc(Cl)cc2Cl)n1` [Example 28, (2-{3-[1-(2,4-dichlorobenzyl)-3-methoxy-1H-pyrazol-5-yl]propoxy}-3-methoxyphenyl)acetic acid] showed a melting point of 111 to 112 °C.
`CCc1cccc(CC(=O)O)c1OCCCc1cc(OC(C)C)nn1Cc1ccc(Cl)cc1Cl` [Example 29, (2-{3-[1-(2,4-dichlorobenzyl)-3-isopropoxy-1H-pyrazol-5-yl]propoxy}-3-ethylphenyl)acetic acid]: the melting point was in the range of 98 to 99 °C.
For the compound `CC(C)Oc1cc(CCCOc2nn(C)cc2CC(=O)O)n(Cc2ccc(Cl)cc2Cl)n1` [Example 32, (3-{3-[1-(2,4-dichlorobenzyl)-3-isopropoxy-1H-pyrazol-5-yl]propoxy}-1-methyl-1H-pyrazol-4-yl)acetic acid], the melting point lay within 96 to 97 °C.
With `COc1cccc(CC(=O)O)c1OCc1cc(OC(C)C)nn1Cc1ccc(Cl)cc1Cl` [Example 50, (2-{[1-(2,4-dichlorobenzyl)-3-isopropoxy-1H-pyrazol-5-yl]methoxy}-3-methoxyphenyl)acetic acid] the figure was 127 to 128 °C.
In the case of `CC(C)c1nc(CCCOc2ncccc2CC(=O)O)c(Cc2ccc(Cl)cc2Cl)s1` [Example 53, (2-{3-[5-(2,4-dichlorobenzyl)-2-isopropyl-1,3-thiazol-4-yl]propoxy}pyridin-3-yl)acetic acid], the melting point was 106 to 107 °C.
Regarding `CCc1cccc(CC(=O)O)c1OCCCc1cn(Cc2nc(-c3ccccc3)oc2C)nc1C(C)C` [Example 54, [3-ethyl-2-(3-{3-isopropyl-1-[(5-methyl-2-phenyl-1,3-oxazol-4-yl)methyl]-1H-pyrazol-4-yl}propoxy)phenyl]acetic acid], the melting point was in the range of 94 to 95 °C.
Compound `CC(C)n1nc(COc2ccccc2CC(=O)O)cc1OCc1ccc2ccccc2n1` [Example 55, (2-{[1-isopropyl-5-(quinolin-2-ylmethoxy)-1H-pyrazol-3-yl]methoxy}phenyl)acetic acid] displayed a melting point of 116 to 117 °C.
The compound `COc1cccc(CC(=O)O)c1OCCCc1cc(OC(C)C)nn1Cc1c(F)cccc1Cl` [Example 67, (2-{3-[1-(2-chloro-6-fluorobenzyl)-3-isopropoxy-1H-pyrazol-5-yl]propoxy}-3-methoxyphenyl)acetic acid] yielded a melting point of 97 to 98 °C.
Consider `CCOc1cc(Cl)ccc1Cn1nc(OC(C)C)cc1CCCOc1c(CC(=O)O)cccc1OC` [Example 69, (2-{3-[1-(4-chloro-2-ethoxybenzyl)-3-isopropoxy-1H-pyrazol-5-yl]propoxy}-3-methoxyphenyl)acetic acid], for which the melting point was in the range of 98 to 99 °C.
Turning to `Cc1cc(Cl)ccc1Cn1nc(OC(C)C)cc1CCCOc1ncccc1CC(=O)O` [Example 74, (2-{3-[1-(4-chloro-2-methylbenzyl)-3-isopropoxy-1H-pyrazol-5-yl]propoxy}pyridin-3-yl)acetic acid], the melting point lay in the range of 97 to 98 °C.
Regarding `CCCOc1cc(CCCOc2c(CC(=O)O)cccc2OC)n(Cc2ccc(Cl)cc2)n1` [Example 81, (2-{3-[1-(4-chlorobenzyl)-3-propoxy-1H-pyrazol-5-yl]propoxy}-3-methoxyphenyl)acetic acid], the melting point is 131 to 132 °C.
Compound `CC(C)Oc1cc(CCCOc2c(CC(=O)O)ccc3ccccc23)n(Cc2ccc(Cl)cc2Cl)n1` [Example 87, (1-{3-[1-(2,4-dichlorobenzyl)-3-isopropoxy-1H-pyrazol-5-yl]propoxy}-2-naphthyl)acetic acid] came in with a melting point of 96 to 98 °C.
The compound `CCCOc1cc(CCCOc2nn(C)cc2CC(=O)O)n(Cc2ccc(Cl)cc2Cl)n1` [Example 88, (3-{3-[1-(2,4-dichlorobenzyl)-3-propoxy-1H-pyrazol-5-yl]propoxy}-1-methyl-1H-pyrazol-4-yl)acetic acid] returned a melting point of 77 to 81 °C.
In turn, `CCCOc1cc(CCCOc2nn(Cc3ccccc3)cc2CC(=O)O)n(Cc2ccc(Cl)cc2Cl)n1` [Example 89, (1-benzyl-3-{3-[1-(2,4-dichlorobenzyl)-3-propoxy-1H-pyrazol-5-yl]propoxy}-1H-pyrazol-4-yl)acetic acid] gave a melting point of 132 to 134 °C.
Consider `CCCOc1cc(CCCOc2nn(Cc3ccccc3)cc2CC(=O)O)n(Cc2ccc(F)cc2F)n1` [Example 90, (1-benzyl-3-{3-[1-(2,4-difluorobenzyl)-3-propoxy-1H-pyrazol-5-yl]propoxy}-1H-pyrazol-4-yl)acetic acid], for which the melting point was in the range of 94 to 95 °C.
`CC(C)Oc1cc(CCCOc2ncccc2CC(=O)O)n(Cc2ccc(Cl)cc2OC(C)C)n1` [Example 94, (2-{3-[1-(4-chloro-2-isopropoxybenzyl)-3-isopropoxy-1H-pyrazol-5-yl]propoxy}pyridin-3-yl)acetic acid] gave a melting point of 82 to 84 °C.
`CN(C)CCOc1cc(CCCOc2nn(Cc3ccccc3)cc2CC(=O)O)n(Cc2ccc(Cl)cc2Cl)n1` [Example 96, [1-benzyl-3-(3-{1-(2,4-dichlorobenzyl)-3-[2-(dimethylamino)ethoxy]-1H-pyrazol-5-yl}propoxy)-1H-pyrazol-4-yl]acetic acid] yielded a melting point of 78.3 to 80.8 °C.
With `CCOc1cc(C(=O)c2ccccn2)ccc1OCCOc1c(CC(=O)O)cccc1OC` [Example 123, (2-{2-[2-ethoxy-4-(pyridin-2-ylcarbonyl)phenoxy]ethoxy}-3-methoxyphenyl)acetic acid] the figure was 184 to 186 °C.
As for `CCOc1cc(Cc2ccccn2)ccc1CCCOc1c(CC(=O)O)cccc1OC` [Example 125, (2-{3-[2-ethoxy-4-(pyridin-2-ylmethyl)phenyl]propoxy}-3-methoxyphenyl)acetic acid], the melting point fell in the range of 97.5 to 98.5 °C.
`CCn1cc(CC(=O)O)c(OCCCc2ccc(Cc3ccccn3)cc2OC(C)C)n1` [Example 126, (3-{3-[2-isopropoxy-4-(pyridin-2-ylmethyl)phenyl]propoxy}-1-ethyl-1H-pyrazol-4-yl)acetic acid] showed a melting point of 97 to 98 °C.
The compound `CC(C)c1ncc(CCCOc2nn(C)cc2CC(=O)O)c(Oc2ccc(Cl)cc2Cl)n1` [Example 128, (3-{3-[4-(2,4-dichlorophenoxy)-2-isopropylpyrimidin-5-yl]propoxy}-1-methyl-1H-pyrazol-4-yl)acetic acid] returned a melting point of 107 to 108 °C.
Consider `CC(C)c1ncc(CCCOc2nn(Cc3ccccc3)cc2CC(=O)O)c(Oc2ccc(Cl)cc2Cl)n1` [Example 129, (3-{3-[4-(2,4-dichlorophenoxy)-2-isopropylpyrimidin-5-yl]propoxy}-1-benzyl-1H-pyrazol-4-yl)acetic acid], for which the melting point was 98 to 99 °C.
`CCOc1ccc(CCCOc2c(CC(=O)O)cccc2OC)c(Oc2ccc(Cl)cc2Cl)n1` [Example 134, (2-{3-[2-(2,4-dichlorophenoxy)-6-ethoxypyridin-3-yl]propoxy}-3-methoxyphenyl)acetic acid] had a melting point of 89 to 91 °C.
With `CCOc1ccc(CCCOc2nn(C)cc2CC(=O)O)c(Oc2ccc(Cl)cc2Cl)n1` [Example 135, (3-{3-[2-(2,4-dichlorophenoxy)-6-ethoxypyridin-3-yl]propoxy}-1-methyl-1H-pyrazol-4-yl)acetic acid] the figure was 81 to 83 °C; with `CC(C)Oc1ccc(CCCOc2cc(CCC(=O)O)n(C)n2)c(Oc2ncc(Cl)cc2Cl)c1` [Example 140, 3-[3-(3-{2-[(3,5-dichloropyridin-2-yl)oxy]-4-isopropoxyphenyl}propoxy)-1-methyl-1H-pyrazol-5-yl]propanoic acid], 77 to 78 °C.
